PubChem BioAssay AID493003 (Sanford-Burnham Center for Chemical Genomics, 2010)
Active and inactive are the calls of the source. How the calls were made is not given here.

These compounds were tested on S. cerevisiae tim10-1 mutant growth, luminescence (assay: tim10-1 yeast growth inhibition potency – luminescence, S. cerevisiae, uHTS hits, dose response (AID 493003);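 further: yeast growth measured after about 22 hours at 25 °C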).
`CC1CCN(C(=O)CCc2ccc(Oc3cc([N+](=O)[O-])cc([N+](=O)[O-])c3)cc2)CC1` showed an IC50 of 50.1 µM. `N/C(Cc1ccc(Cl)cc1Cl)=N\OC(=O)Cc1ccc(Cl)cc1` gave an IC50 of 1.41 µM. `O=C1CC(N2CC=C(c3ccccc3)CC2)C(=O)N1c1ccc(F)cc1` (stereo unspecified) was tested, and the IC50 was 14.7 µM. With `N/C(=C\C(=O)c1cc(Cl)ccc1O)C(Cl)(Cl)Cl` the IC50 was 47.3 µM. Work on `COc1ccc(NC2CCN(C3CC(=O)N(c4ccc(F)c(Cl)c4)C3=O)CC2)cc1` (stereo unspecified) yielded an IC50 of 10.4 µM. `Cc1nc2scc(C)n2c(=O)c1S(=O)(=O)N1CCN(c2cccc(C(F)(F)F)c2)CC1` was tested, and the IC50 was 47.3 µM. Compound `CCCn1c(CC)nc([N+](=O)[O-])c1S(=O)(=O)c1ccccc1` has an IC50 of 13.1 µM. `COc1ccc(C2(O)CC3CCC(C2)N3c2cc(C)nc(-c3ccccc3)n2)cc1` (stereo unspecified) was tested, and the IC50 was 18.2 µM. Work on `Cc1cccc(C(=O)CC(=O)c2cc(Cl)ccc2O)c1` yielded an IC50 of 19 µM. Work on `COc1ccc(N2CCN(C(=O)Nc3cccc(C(F)(F)F)c3)CC2)cc1` yielded an IC50 of 29.1 µM. `CCN1CCN(C(c2cccnc2)c2cc(Cl)c3cccnc3c2O)CC1` (stereo unspecified) showed an IC50 of 18 µM. With `Cn1c(NCc2c(O)ccc3ccccc23)nc2ccccc21` the IC50 was > 100 µM (inactive). For `O=S(=O)(c1ccc(N2CCC(c3ccc(Cl)cc3)=N2)cc1)N(CCO)CCO`, the IC50 was 20.7 µM. `Cc1nn(-c2ccccc2)c2c1C1(C(=O)N(C)c3ccccc31)C(C#N)=C(N)O2` (stereo unspecified) was tested, and the IC50 was 53.4 µM. Compound `O=S(=O)(c1ccc2c(c1)OCCO2)N1CCC(O)(c2ccc(Cl)cc2)CC1` has an IC50 of 67.1 µM. Work on `O=C(CN1CCN(S(=O)(=O)c2ccc(F)cc2)CC1)Nc1ccc(Cl)c(C(F)(F)F)c1` yielded an IC50 of 18.8 µM. With `N/C(=N\OC(=O)c1ccccc1Cl)c1cccc([N+](=O)[O-])c1` the IC50 was 23 µM. With `C=CCc1ccc(O)c(-c2ccc(O)c(CC=C)c2)c1` the IC50 was 48.8 µM. In the case of `Cc1c(C)n(Cc2ccccc2)c2ccc(C(=O)OCCN(C)C)cc12`, the IC50 is reported as 32.1 µM. In the case of `Cc1nc(Nc2ccc(Cl)cc2Cl)sc1C(=O)Nc1ccccc1`, the IC50 is reported as > 100 µM (inactive). `COc1cc(/C=N/N=C2/C(=O)Nc3ccccc32)cc(OC)c1O` was tested, and the IC50 was 30.1 µM. `C=CCN1C(=O)C(O)(CC(=O)c2ccc(-n3cccc3)cc2)c2ccccc21` (stereo unspecified) was tested, and the IC50 was 24.1 µM. Compound `Cc1ccc(OCC(=O)O/N=C(\N)Cc2ccc(Cl)cc2)cc1` has an IC50 of 9.22 µM. `Cc1ccc(C)c(S(=O)(=O)ON2C(=O)c3ccccc3C2=O)c1` was tested, and the IC50 was 22.1 µM. For `Nc1nc(-c2ccc(Br)cc2)cs1`, the IC50 was 16.9 µM. Compound `CCc1c(C)[nH]n(-c2nc(-c3ccccc3)cs2)c1=O` has an IC50 of 38.4 µM. Work on `C/C(=N\N=C1\NC(=O)C(CC(=O)Nc2ccc(C)c(Cl)c2)S1)C(C)(C)C` (stereo unspecified) yielded an IC50 of 47.3 µM. `CC1CCN(C(=S)c2cn(Cc3ccccc3F)c3ccccc23)CC1` showed an IC50 of 35.4 µM. Compound `COc1ccc(-c2cc(C3CCN(C(=O)OC(C)(C)C)CC3)[nH]n2)cc1` has an IC50 of 51.2 µM. `COc1cc2c(cc1OC)CN(C(=O)c1ccc(-c3ccccc3)cc1)CC2` showed an IC50 of 47.3 µM. `CCCN(CC1COc2ccccc2O1)C(=S)Nc1ccc(C)cc1` (stereo unspecified) was tested, and the IC50 was 33.5 µM. Work on `Cn1nc(-c2ccccc2)cc1NC(=O)Nc1ccc(C(C)(C)C)cc1` yielded an IC50 of 20.3 µM. In the case of `CCn1nccc1C(=O)Nc1ccc(Cl)c(Cl)c1`, the IC50 is reported as 24.3 µM. `COc1ccc(OCC(=O)Nc2ccc(S(=O)(=O)N3CCCCC3)cc2)cc1` gave an IC50 of 36.4 µM. Compound `CCCC(=O)Nn1cnc2c(c1=O)C1(CCCC1)Cc1ccccc1-2` has an IC50 of 75.2 µM. In the case of `CCCN(Cc1ccccc1)C(=S)Nc1cccc(C(F)(F)F)c1`, the IC50 is reported as 66.1 µM. `Oc1ccc(-c2nccc(-c3ccc(Cl)cc3Cl)n2)cc1` was tested, and the IC50 was 37.1 µM. `CC(=O)/C(=N\Nc1ccc(Cl)cc1Cl)Sc1cccc2cccnc12` gave an IC50 of 41.3 µM. `COc1ccc(Cl)cc1NC(=S)NCc1ccco1` gave an IC50 of 16.2 µM. Compound `Clc1ccccc1Nc1nnc(-c2ccncc2)s1` has an IC50 of 52.7 µM. `O=C(c1ccc2ncsc2c1)N1CCN(c2cccc(C(F)(F)F)c2)CC1` was tested, and the IC50 was 38.4 µM. Compound `CN1C(=O)C(O)(CC(=O)c2cccc(-n3cccc3)c2)c2ccccc21` (stereo unspecified) has an IC50 of 40 µM. With `Cc1cc(C)n(-c2nnc(NC34CC5CC(CC(C5)C3)C4)nn2)n1` the IC50 was 46.4 µM. `Cc1nonc1C1CCCN1C(=O)c1cc(COc2cccc(C(F)(F)F)c2)on1` (stereo unspecified) was tested, and the IC50 was 17.3 µM. `N/C(=N\OC(=O)Cc1ccc([N+](=O)[O-])cc1)c1cccc(Br)c1` gave an IC50 of 27.4 µM. For `O=S(=O)(CCN(CCS(=O)(=O)C(F)(F)F)CC1CCCO1)C(F)(F)F` (stereo unspecified), the IC50 was 7.82 µM. With `CCC(=NCc1ccccc1)c1c(C(F)(F)F)[nH]n(-c2nc3ccccc3s2)c1=O` the IC50 was > 100 µM (inactive). `Cc1cccc(/C=C2\Oc3cc(OS(C)(=O)=O)ccc3C2=O)c1` showed an IC50 of 31.9 µM. `CCN(CC)CCN(C(=O)c1ccc2c(c1)CCCC2)c1nc2ccc(OC)cc2s1` showed an IC50 of 22 µM. Compound `O=C(Nc1cc(Sc2ccccn2)cc([N+](=O)[O-])c1)c1cccc(Cl)c1` has an IC50 of 34.9 µM. For `CCOC(=O)c1c(-c2ccccc2)csc1NC(=S)NC`, the IC50 was 44.7 µM. With `CCCCCCC(=O)N(O)C1CC(=O)N(c2ccc(C)cc2)C1=O` (stereo unspecified) the IC50 was 12.2 µM. With `CN1CCN(c2ccccc2NC(=O)c2ccc(-c3ccc(Cl)c(Cl)c3)o2)CC1` the IC50 was 15.1 µM. `C=CC(C)(C)c1c(O)c(CC=C(C)C)c(O)c2c(=O)c3ccc(O)c(O)c3oc12` showed an IC50 of 30.7 µM. For `O=[N+]([O-])c1ccc2oc(C(O)c3cccc(Cl)c3)cc2c1` (stereo unspecified), the IC50 was 15.1 µM. In the case of `N=c1c2c(-c3ccccc3)c(-c3ccccc3)n(Cc3ccccc3)c2ncn1CCO`, the IC50 is reported as 23.8 µM.
